Counter-ions that a name gives are not always drawn.
Test: hygroscopicity by the micro balance method (Gravimetric Vapour Sorption System DVS-1)
Format: physicochemical
Conditions: FIG. 2 (A); temperature 25.1° C.
Description: Next, it will be illustrated that although Compound (IV) prepared according to the present invention is a mono lysine salt, it has excellent […] in a comparison with a dilysine salt. Note that, a dilysine salt can be prepared by the methods disclosed in Published Japanese Translation of a PCT Application No. 2003-520235. […] Note that, the measurement instrument used in the micro balance method was the following apparatus:
Gravimetric Vapour Sorption System (Model DVS-1 Surface Measurement System).

## C[C@@H](c1nc(-c2ccc(C#N)cc2)cs1)[C@@](Cn1cncn1)(OCOP(=O)(O)O)c1ccc(F)cc1F [mono lysine salt]
  relative humidity at which moisture absorption phenomenon was observed: 70 % RH
